Active and inactive are the calls of the source. No cut-off for these calls is given here.
Columns and labels:
[1] = Selectivity index, ratio of GI50 for human HaCaT cells to GI50 for human A549 cells; assay type: toxicity; conditions: HaCaT cells versus A549 cells, read-out: RatioGI50
[2] = tested on: NCI-H522; assay: Anticancer activity against human NCI-H522 cells assessed as growth inhibition incubated for 48 hrs by SRB assay; assay type: functional
[3] = Selectivity index, ratio of GI50 for human HaCaT cells to GI50 for human MDA-MB-231 cells; assay type: toxicity; conditions: HaCaT cells versus MDA-MB-231 cells, read-out: RatioGI50
[4] = tested on: UO-31; assay: Anticancer activity against human UO-31 cells assessed as total growth inhibition incubated for 48 hrs by SRB assay; assay type: functional
[5] = Selectivity index, ratio of GI50 for human HaCaT cells to GI50 for human Jurkat cells; assay type: toxicity; conditions: HaCaT cells versus Jurkat cells, read-out: RatioGI50
[6] = tested on: NCI-H322M; assay: Anticancer activity against human NCI-H322M cells assessed as growth inhibition incubated for 48 hrs by SRB assay; assay type: functional
[7] = tested on: HL-60; assay: Anticancer activity against human HL-60 cells assessed as total growth inhibition incubated for 48 hrs by SRB assay; assay type: functional
[8] = tested on: UACC-62; assay: Anticancer activity against human UACC-62 cells assessed as total growth inhibition incubated for 48 hrs by SRB assay; assay type: functional
[9] = tested on: SF-295; assay: Anticancer activity against human SF-295 cells assessed as growth inhibition incubated for 48 hrs by SRB assay; assay type: functional
[10] = tested on: Jurkat; assay: Induction of morphological changes in human Jurkat cells assessed as chromatin topology incubated for 24 hrs by Hoechst 33258 and propidium iodide staining based fluorescence microscopy; assay type: functional, cell-based
[11] = tested on: A549; assay: Anticancer activity against human A549 cells assessed as cell growth inhibition incubated for 72 hrs by MTT assay; assay type: functional
[12] = tested on: MDA-MB-468; assay: Anticancer activity against human MDA-MB-468 cells assessed as lethality incubated for 48 hrs by SRB assay; assay type: functional; conditions: read-out: LC50 (the source's name)
[13] = tested on: SR; assay: Anticancer activity against human SR cells assessed as total growth inhibition incubated for 48 hrs by SRB assay; assay type: functional
[14] = tested on: RPMI-8226; assay: Anticancer activity against human RPMI-8226 cells assessed as growth inhibition incubated for 48 hrs by SRB assay; assay type: functional
[15] = Selectivity index, ratio of GI50 for human HaCaT cells to GI50 for human HCT-116 cells; assay type: toxicity; conditions: HaCaT cells versus HCT-116 cells, read-out: RatioGI50
[16] = tested on: K562; assay: Anticancer activity against human K562 cells assessed as lethality incubated for 48 hrs by SRB assay; assay type: functional; conditions: read-out: LC50 (the source's name)
[17] = tested on: T47D; assay: Anticancer activity against human T47D cells assessed as growth inhibition incubated for 48 hrs by SRB assay; assay type: functional
[18] = tested on: OVCAR-5; assay: Anticancer activity against human OVCAR-5 cells assessed as total growth inhibition incubated for 48 hrs by SRB assay; assay type: functional
[19] = tested on: EKVX; assay: Anticancer activity against human EKVX cells assessed as growth inhibition incubated for 48 hrs by SRB assay; assay type: functional
[20] = tested on: M14; assay: Anticancer activity against human M14 cells assessed as total growth inhibition incubated for 48 hrs by SRB assay; assay type: functional
[21] = tested on: NCI/ADR-RES; assay: Anticancer activity against human NCI/ADR-RES cells assessed as lethality incubated for 48 hrs by SRB assay; assay type: functional; conditions: read-out: LC50 (the source's name)
[22] = tested on: UACC-62; assay: Anticancer activity against human UACC-62 cells assessed as growth inhibition incubated for 48 hrs by SRB assay; assay type: functional
[23] = tested on: MDA-MB-435; assay: Anticancer activity against human MDA-MB-435 cells assessed as total growth inhibition incubated for 48 hrs by SRB assay; assay type: functional
[24] = Selectivity index, ratio of GI50 for human HaCaT cells to GI50 for human MCF7 cells; assay type: toxicity; conditions: HaCaT cells versus MCF7 cells, read-out: RatioGI50
[25] = tested on: COLO 205; assay: Anticancer activity against human COLO 205 cells assessed as lethality incubated for 48 hrs by SRB assay; assay type: functional; conditions: read-out: LC50 (the source's name)
[26] = tested on: TK-10; assay: Anticancer activity against human TK-10 cells assessed as growth inhibition incubated for 48 hrs by SRB assay; assay type: functional
[27] = tested on: SK-MEL-28; assay: Anticancer activity against human SK-MEL-28 cells assessed as growth inhibition incubated for 48 hrs by SRB assay; assay type: functional
[28] = tested on: HCT-15; assay: Anticancer activity against human HCT-15 cells assessed as growth inhibition incubated for 48 hrs by SRB assay; assay type: functional
[29] = tested on: RPMI-8226; assay: Anticancer activity against human RPMI-8226 cells assessed as total growth inhibition incubated for 48 hrs by SRB assay; assay type: functional
[30] = tested on: SNB-19; assay: Anticancer activity against human SNB-19 cells assessed as total growth inhibition incubated for 48 hrs by SRB assay; assay type: functional
[31] = tested on: A549; assay: Anticancer activity against human A549 cells assessed as total growth inhibition incubated for 48 hrs by SRB assay; assay type: functional
[32] = tested on: SK-MEL-2; assay: Anticancer activity against human SK-MEL-2 cells assessed as growth inhibition incubated for 48 hrs by SRB assay; assay type: functional
[33] = tested on: IGROV-1; assay: Anticancer activity against human IGROV-1 cells assessed as lethality incubated for 48 hrs by SRB assay; assay type: functional; conditions: read-out: LC50 (the source's name)
[34] = tested on: Hs-578T; assay: Anticancer activity against human Hs-578T cells assessed as growth inhibition incubated for 48 hrs by SRB assay; assay type: functional
[35] = tested on: MOLT-4; assay: Anticancer activity against human MOLT-4 cells assessed as total growth inhibition incubated for 48 hrs by SRB assay; assay type: functional
[36] = tested on: HT-29; assay: Anticancer activity against human HT-29 cells assessed as lethality incubated for 48 hrs by SRB assay; assay type: functional; conditions: read-out: LC50 (the source's name)
[37] = tested on: ACHN; assay: Anticancer activity against human ACHN cells assessed as total growth inhibition incubated for 48 hrs by SRB assay; assay type: functional
[38] = tested on: HOP-92; assay: Anticancer activity against human HOP-92 cells assessed as total growth inhibition incubated for 48 hrs by SRB assay; assay type: functional
[39] = tested on: MCF7; assay: Anticancer activity against human MCF7 cells assessed as growth inhibition incubated for 48 hrs by SRB assay; assay type: functional
[40] = tested on: BT-549; assay: Anticancer activity against human BT-549 cells assessed as lethality incubated for 48 hrs by SRB assay; assay type: functional; conditions: read-out: LC50 (the source's name)
[41] = tested on: RXF 393; assay: Anticancer activity against human RXF 393 cells assessed as growth inhibition incubated for 48 hrs by SRB assay; assay type: functional
[42] = tested on: KM12; assay: Anticancer activity against human KM12 cells assessed as lethality incubated for 48 hrs by SRB assay; assay type: functional; conditions: read-out: LC50 (the source's name)
[43] = tested on: UO-31; assay: Anticancer activity against human UO-31 cells assessed as growth inhibition incubated for 48 hrs by SRB assay; assay type: functional
[44] = tested on: NCI-H226; assay: Anticancer activity against human NCI-H226 cells assessed as lethality incubated for 48 hrs by SRB assay; assay type: functional; conditions: read-out: LC50 (the source's name)
[45] = tested on: NCI/ADR-RES; assay: Anticancer activity against human NCI/ADR-RES cells assessed as total growth inhibition incubated for 48 hrs by SRB assay; assay type: functional
[46] = tested on: OVCAR-5; assay: Anticancer activity against human OVCAR-5 cells assessed as growth inhibition incubated for 48 hrs by SRB assay; assay type: functional
[47] = tested on: Jurkat; assay: Induction of morphological changes in human Jurkat cells assessed as chromatin condensation incubated for 24 hrs by Hoechst 33258 and propidium iodide staining based fluorescence microscopy; assay type: functional, cell-based
[48] = tested on: Jurkat; assay: Induction of morphological changes in human Jurkat cells assessed as chromatin fragmentation incubated for 24 hrs by Hoechst 33258 and propidium iodide staining based fluorescence microscopy; assay type: functional, cell-based

Compound: O=C1CC(N2C(=O)/C(=C/C(Cl)=C/c3ccc([N+](=O)[O-])cc3)SC2=S)C(=O)N1c1ccc(Cl)cc1 (stereo unspecified)
- selectivity ratio [1]: 1.56
- GI50 [2]: 1730 nM
- selectivity ratio [3]: 15.5
- TGI [4]: 3.3 µM
- selectivity ratio [5]: 29.4
- GI50 [6]: 3000 nM
- TGI [7]: 8.86 µM
- TGI [8]: 4.3 µM
- GI50 [9]: 1400 nM
- Activity [10]: Active
- GI50 [11]: 63.9 µM
- CC50 [12]: 7.22 µM
- TGI [13]: 14.2 µM
- GI50 [14]: 303 nM
- selectivity ratio [15]: 10.9
- CC50 [16]: 54.9 µM
- GI50 [17]: 2030 nM
- TGI [18]: 4.46 µM
- GI50 [19]: 3.11 µM
- TGI [20]: 5.06 µM
- CC50 [21]: > 100 µM
- GI50 [22]: 1770 nM
- TGI [23]: 3.39 µM
- selectivity ratio [24]: 12.6
- CC50 [25]: > 100 µM
- GI50 [26]: 2790 nM
- GI50 [27]: 1710 nM
- GI50 [28]: 599 nM
- TGI [29]: 979 nM
- TGI [30]: 2.97 µM
- TGI [31]: > 100 µM
- GI50 [32]: 3120 nM
- CC50 [33]: 49.6 µM
- GI50 [34]: 1800 nM
- TGI [35]: 13.4 µM
- CC50 [36]: > 100 µM
- TGI [37]: 3.48 µM
- TGI [38]: 6.79 µM
- GI50 [39]: 1380 nM
- CC50 [40]: 8 µM
- GI50 [41]: 1260 nM
- CC50 [42]: > 100 µM
- GI50 [43]: 1070 nM
- CC50 [44]: > 100 µM
- TGI [45]: 6.19 µM
- GI50 [46]: 2040 nM
- Activity [47]: Active
- Activity [48]: Active

Compound: O=C1CC(N2C(=O)/C(=C/C(Cl)=C/c3ccc([N+](=O)[O-])cc3)SC2=S)C(=O)N1c1ccc(O)cc1 (stereo unspecified)
- selectivity ratio [1]: 10.2
- GI50 [2]: 1860 nM
- selectivity ratio [3]: 11.9
- TGI [4]: 2.79 µM
- selectivity ratio [5]: 56.6
- GI50 [6]: 2340 nM
- TGI [7]: 9.57 µM
- TGI [8]: 3.38 µM
- GI50 [9]: 1310 nM
- Activity [10]: Active
- GI50 [11]: 7.25 µM
- CC50 [12]: > 100 µM
- TGI [13]: 4.97 µM
- GI50 [14]: 295 nM
- selectivity ratio [15]: 16.3
- CC50 [16]: > 100 µM
- GI50 [17]: 2450 nM
- TGI [18]: 3.7 µM
- GI50 [19]: 3.25 µM
- TGI [20]: 3.31 µM
- CC50 [21]: > 100 µM
- GI50 [22]: 1670 nM
- TGI [23]: 4.34 µM
- selectivity ratio [24]: 18.4
- CC50 [25]: 56 µM
- GI50 [26]: 1920 nM
- GI50 [27]: 1950 nM
- GI50 [28]: 472 nM
- TGI [29]: 4360 nM
- TGI [30]: 3.47 µM
- TGI [31]: 11.4 µM
- GI50 [32]: 2740 nM
- CC50 [33]: 5.98 µM
- GI50 [34]: 2800 nM
- TGI [35]: 15.3 µM
- CC50 [36]: > 100 µM
- TGI [37]: 2.76 µM
- TGI [38]: 3.72 µM
- GI50 [39]: 1210 nM
- CC50 [40]: 8.72 µM
- GI50 [41]: 1530 nM
- CC50 [42]: 15.8 µM
- GI50 [43]: 1350 nM
- CC50 [44]: 50.3 µM
- TGI [45]: 12.1 µM
- GI50 [46]: 1910 nM
- Activity [47]: Active
- Activity [48]: Active
